Laboratory results as given in patent publication US20130096170A1 (priority 2011, published 2013).

Columns and labels:
clinical = conditions: human, plasma, intravenous, full evaluable population
[1] = human, in vivo
[2] = in vivo

Q: What does the source list for Cc1cccc([C@H](C)c2cnc[nH]2)c1C [dexmedetomidine]?
A: Cmax (clinical; Cmax Median, Dose Level 4, LD 1.00/CD 2.00 μg/kg/hr): 2.69 ng/mL; Cmax (clinical; Cmax, Table 30 key summary (mean), Dose Level 1, LD 0.25/CD 0.2 μg/kg/hr): 0.48 ng/mL; Cmax (clinical; Cmax, Table 30 key summary (mean), Dose Level 2, LD 0.50/CD 0.4 μg/kg/hr): 0.848 ng/mL; Cmax (clinical; Cmax, Table 30 key summary (mean), Dose Level 3, LD 1.00/CD 0.7 μg/kg/hr): 3.39 ng/mL; Cmax (clinical; Cmax, Table 30 key summary (mean), Dose Level 4, LD 1.00/CD 2.00 μg/kg/hr): 3.09 ng/mL; Tmax (clinical; Tmax Mean, Dose Level 1, LD 0.25/CD 0.2 μg/kg/hr): 7.31 h; Tmax (clinical; Tmax Mean, Dose Level 2, LD 0.50/CD 0.4 μg/kg/hr): 8.8 h; Tmax (clinical; Tmax Mean, Dose Level 3, LD 1.00/CD 0.7 μg/kg/hr): 2.17 h; Tmax (clinical; Tmax Mean, Dose Level 4, LD 1.00/CD 2.00 μg/kg/hr): 6.82 h; Tmax (clinical; Tmax Median, Dose Level 1, LD 0.25/CD 0.2 μg/kg/hr): 6.04 h; Tmax (clinical; Tmax Median, Dose Level 2, LD 0.50/CD 0.4 μg/kg/hr): 5.68 h; Tmax (clinical; Tmax Median, Dose Level 3, LD 1.00/CD 0.7 μg/kg/hr): 0.367 h; Tmax (clinical; Tmax Median, Dose Level 4, LD 1.00/CD 2.00 μg/kg/hr): 5.42 h; Vd (clinical; Vd Mean, Dose Level 1, LD 0.25/CD 0.2 μg/kg/hr): 62 L; Vd (clinical; Vd Mean, Dose Level 2, LD 0.50/CD 0.4 μg/kg/hr): 50.6 L; Vd (clinical; Vd Mean, Dose Level 3, LD 1.00/CD 0.7 μg/kg/hr): 52.3 L; Vd (clinical; Vd Mean, Dose Level 4, LD 1.00/CD 2.00 μg/kg/hr): 62.2 L; Vd (clinical; Vd Median, Dose Level 2, LD 0.50/CD 0.4 μg/kg/hr): 40.7 L; Vd (clinical; Vd Median, Dose Level 3, LD 1.00/CD 0.7 μg/kg/hr): 51.3 L; Vd (clinical; Vd Median, Dose Level 4, LD 1.00/CD 2.00 μg/kg/hr): 57.8 L; Vd (clinical; Vd, Table 30 key summary (mean), Dose Level 1, LD 0.25/CD 0.2 μg/kg/hr): 62 L; Vd (clinical; Vd, Table 30 key summary (mean), Dose Level 2, LD 0.50/CD 0.4 μg/kg/hr): 50.6 L; Vd (clinical; Vd, Table 30 key summary (mean), Dose Level 3, LD 1.00/CD 0.7 μg/kg/hr): 52.3 L; Vd (clinical; Vd, Table 30 key summary (mean), Dose Level 4, LD 1.00/CD 2.00 μg/kg/hr): 62.2 L; Vd (clinical; Vss Mean, Dose Level 1, LD 0.25/CD 0.2 μg/kg/hr): 56.8 L; Vd (clinical; Vss Mean, Dose Level 3, LD 1.00/CD 0.7 μg/kg/hr): 32.8 L; Vd (clinical; Vss Mean, Dose Level 4, LD 1.00/CD 2.00 μg/kg/hr): 43.7 L; Vd (clinical; Vss Median, Dose Level 1, LD 0.25/CD 0.2 μg/kg/hr): 40.3 L; Vd (clinical; Vss Median, Dose Level 2, LD 0.50/CD 0.4 μg/kg/hr): 30.6 L; Vd (clinical; Vss Median, Dose Level 3, LD 1.00/CD 0.7 μg/kg/hr): 30.4 L; Vd (clinical; Vss Median, Dose Level 4, LD 1.00/CD 2.00 μg/kg/hr): 33.1 L; clearance (clinical; Weight-adjusted CL Mean, Dose Level 1, LD 0.25/CD 0.2 μg/kg/hr): 17.3 mL/min/kg; clearance (clinical; Weight-adjusted CL Mean, Dose Level 2, LD 0.50/CD 0.4 μg/kg/hr): 15.7 mL/min/kg; clearance (clinical; Weight-adjusted CL Mean, Dose Level 3, LD 1.00/CD 0.7 μg/kg/hr): 14 mL/min/kg; clearance (clinical; Weight-adjusted CL Mean, Dose Level 4, LD 1.00/CD 2.00 μg/kg/hr): 14.2 mL/min/kg; clearance (clinical; Weight-adjusted CL Median, Dose Level 1, LD 0.25/CD 0.2 μg/kg/hr): 19.9 mL/min/kg; clearance (clinical; Weight-adjusted CL Median, Dose Level 2, LD 0.50/CD 0.4 μg/kg/hr): 14.7 mL/min/kg; clearance (clinical; Weight-adjusted CL Median, Dose Level 3, LD 1.00/CD 0.7 μg/kg/hr): 14.7 mL/min/kg; clearance (clinical; Weight-adjusted CL Median, Dose Level 4, LD 1.00/CD 2.00 μg/kg/hr): 13.4 mL/min/kg; clearance (clinical; Weight-adjusted CL, Table 30 key summary (mean), Dose Level 1, LD 0.25/CD 0.2 μg/kg/hr): 16.7 mL/min/kg; clearance (clinical; Weight-adjusted CL, Table 30 key summary (mean), Dose Level 2, LD 0.50/CD 0.4 μg/kg/hr): 15 mL/min/kg; clearance (clinical; Weight-adjusted CL, Table 30 key summary (mean), Dose Level 3, LD 1.00/CD 0.7 μg/kg/hr): 13.3 mL/min/kg; clearance (clinical; Weight-adjusted CL, Table 30 key summary (mean), Dose Level 4, LD 1.00/CD 2.00 μg/kg/hr): 13.3 mL/min/kg; Vd (clinical; Weight-adjusted Vd Mean, Dose Level 1, LD 0.25/CD 0.2 μg/kg/hr): 2.17 L/kg; Vd (clinical; Weight-adjusted Vd Mean, Dose Level 2, LD 0.50/CD 0.4 μg/kg/hr): 2.31 L/kg; Vd (clinical; Weight-adjusted Vd Mean, Dose Level 3, LD 1.00/CD 0.7 μg/kg/hr): 2.44 L/kg; Vd (clinical; Weight-adjusted Vd Mean, Dose Level 4, LD 1.00/CD 2.00 μg/kg/hr): 2.48 L/kg; Vd (clinical; Weight-adjusted Vd Median, Dose Level 1, LD 0.25/CD 0.2 μg/kg/hr): 2.43 L/kg; Vd (clinical; Weight-adjusted Vd Median, Dose Level 2, LD 0.50/CD 0.4 μg/kg/hr): 2.49 L/kg; Vd (clinical; Weight-adjusted Vd Median, Dose Level 3, LD 1.00/CD 0.7 μg/kg/hr): 2.19 L/kg; Vd (clinical; Weight-adjusted Vd Median, Dose Level 4, LD 1.00/CD 2.00 μg/kg/hr): 2.15 L/kg; Vd (clinical; Weight-adjusted Vd, Table 30 key summary (mean), Dose Level 1, LD 0.25/CD 0.2 μg/kg/hr): 2.2 L/kg; Vd (clinical; Weight-adjusted Vd, Table 30 key summary (mean), Dose Level 2, LD 0.50/CD 0.4 μg/kg/hr): 2.3 L/kg; Vd (clinical; Weight-adjusted Vd, Table 30 key summary (mean), Dose Level 3, LD 1.00/CD 0.7 μg/kg/hr): 2.4 L/kg; Vd (clinical; Weight-adjusted Vd, Table 30 key summary (mean), Dose Level 4, LD 1.00/CD 2.00 μg/kg/hr): 2.5 L/kg; half-life (clinical; t1/2, Table 30 key summary (mean), Dose Level 1, LD 0.25/CD 0.2 μg/kg/hr): 1.5 h; half-life (clinical; t1/2, Table 30 key summary (mean), Dose Level 2, LD 0.50/CD 0.4 μg/kg/hr): 1.7 h; half-life (clinical; t1/2, Table 30 key summary (mean), Dose Level 3, LD 1.00/CD 0.7 μg/kg/hr): 2 h; half-life (clinical; t1/2, Table 30 key summary (mean), Dose Level 4, LD 1.00/CD 2.00 μg/kg/hr): 2.1 h; half-life (clinical; t1/2 Mean, Dose Level 1, LD 0.25/CD 0.2 μg/kg/hr): 1.55 h; half-life (clinical; t1/2 Mean, Dose Level 2, LD 0.50/CD 0.4 μg/kg/hr): 1.74 h; half-life (clinical; t1/2 Mean, Dose Level 3, LD 1.00/CD 0.7 μg/kg/hr): 2.04 h; half-life (clinical; t1/2 Mean, Dose Level 4, LD 1.00/CD 2.00 μg/kg/hr): 2.14 h; half-life (clinical; t1/2 Median, Dose Level 1, LD 0.25/CD 0.2 μg/kg/hr): 1.56 h; half-life (clinical; t1/2 Median, Dose Level 2, LD 0.50/CD 0.4 μg/kg/hr): 1.69 h; half-life (clinical; t1/2 Median, Dose Level 3, LD 1.00/CD 0.7 μg/kg/hr): 1.79 h; half-life (clinical; t1/2 Median, Dose Level 4, LD 1.00/CD 2.00 μg/kg/hr): 2.12 h; t1/2, Mean [1]: 2.260 h; power-model slope (95% confidence interval) for AUC0-inf ([2]; human): 1.263 (0.820, 1.706); power-model slope (95% confidence interval) for Cmax ([2]; human): 0.898 (0.652, 1.143); pharmacokinetic linearity / dose proportionality [2]: linearity and dose proportionality
